This series can be described thus: Peptide stability tests 2 and 3: Tris buffer pH 7.0, stored at 60° C., HPLC conditions 2. Format: physicochemical. The settings on record: 100 μM peptide, Tris buffer pH 7.0, 60° C.; for survival rate after correction for water, 60° C., 2-week storage: 2 weeks. Here is the method:
(§1) Peptides 1, 2 and 6 to 9 synthesized in Example 2 were weighed and dissolved in Tris buffer (pH 7.0) to prepare 1.0 mM peptide solutions. The solutions were filtered with a Chromatdisk (product of Merck Millipore, Millex-GV, 0.22 μm). Each filtrate was diluted to 100 μM with Tris buffer (pH 7.0) and dispensed into a tube (Protein LoBind Tube by Eppendorf Co.). The prepared peptide solutions were incubated for 1 week or 2 weeks in a 60° C. thermostatic bath to obtain stored samples. A simultaneously prepared sample among the peptide solutions that was not stored was used as a standard sample (initial sample). The standard sample and the stored samples were stored at −30° C. until sample analysis.
Each stored sample was measured under the following HPLC analysis conditions 2, and the survival rate after correction for water for each peptide among the stored samples was calculated in the same manner as Example 3.
Column: XSelect CSH C18 by Waters Co., 5 μm, 4.6×250 mm
Guard column: XSelect CSH C18 by Waters. Co., 5 μm, 4.6×20 mm Guard Cartridge
Detection wavelength: 220 nm
Mobile phase A: 0.1% formic acid in water
Mobile phase B: 0.1% formic acid in acetonitrile
Measuring time: 20 minutes
Measuring sample injection rate: 50 μL
Column temperature: 40° C.
Mobile phase delivery: The mixing ratio of mobile phase A and mobile phase B was varied as shown in Table 5 for linear concentration gradient control.
as §1, with “Peptides 12 to 25, 27” for “Peptides 1, 2”, “and 28” for “and 6 to 9”, “for one” for “for 1”
The survival rate after correction for water for each peptide among the stored samples was calculated in the same manner as Example 4, and the results are shown in Table 7.
as §1, with “29” for “1, 2 and 6”, “34” for “9”, “for” for “for 1 week or”
The survival rate after correction for water for each peptide among the stored samples was calculated in the same manner as Example 4, and the results are shown in Table 7-2.

Square brackets hold non-standard residues; d marks the D form. Peptide text beside a SMILES is read from it. Ala(1H-tetrazol-5-yl) = N[C@@H](Cc1nnn[nH]1)C(=O)O

In the case of `CC[C@H](C)[C@H](NC(=O)CNC(=O)[C@H](Cc1nnn[nH]1)NC(=O)[C@H](CO)NC(=O)[C@H](Cc1c[nH]cn1)NC(C)=O)C(=O)N[C@@H](Cc1ccccc1)C(=O)N[C@H](C(=O)N[C@@H](Cc1nnn[nH]1)C(=O)N[C@@H](CO)C(=O)N[C@@H](Cc1ccc(O)cc1)C(=O)N[C@@H](CO)C(=O)N[C@@H](CCCNC(=N)N)C(=O)N[C@@H](Cc1ccc(O)cc1)C(=O)N[C@@H](CCCNC(=N)N)C(=O)N[C@@H](CCCCN)C(=O)N[C@@H](CCC(N)=O)C(=O)N[C@@H](CC(C)C)C(=O)N[C@@H](C)C(=O)N[C@H](C(=O)N[C@@H](CCCCN)C(=O)N[C@@H](CCCCN)C(=O)N[C@@H](Cc1ccc(O)cc1)C(=O)N[C@@H](CC(C)C)C(=O)N[C@@H](C)C(=O)N[C@@H](C)C(=O)N[C@H](C(=O)N[C@@H](C)C(N)=O)C(C)C)C(C)C)[C@@H](C)O` [Peptide 20] (Ac-HS[Ala(1H-tetrazol-5-yl)]GIFT[Ala(1H-tetrazol-5-yl)]SYSRYRKQLAVKKYLAAVA-NH2), the “survival rate after correction for water, 60° C., 1-week storage” value (shortened to “survival rate … 1-week storage”) came to 93.9% and the “survival rate after correction for water, 60° C., 2-week storage” value (“survival rate … 2-week storage” for short) is on record as 91.8%. As for `CC[C@H](C)[C@H](NC(=O)CNC(=O)[C@H](Cc1nnn[nH]1)NC(=O)[C@H](CO)NC(=O)[C@H](Cc1c[nH]cn1)NC(C)=O)C(=O)N[C@@H](Cc1ccccc1)C(=O)N[C@H](C(=O)N[C@@H](Cc1nnn[nH]1)C(=O)N[C@@H](CO)C(=O)N[C@@H](Cc1ccc(O)cc1)C(=O)N[C@@H](CO)C(=O)N[C@@H](CCCNC(=N)N)C(=O)N[C@@H](Cc1ccc(O)cc1)C(=O)N[C@@H](CCCNC(=N)N)C(=O)N[C@@H](CCCNC(=N)N)C(=O)N[C@@H](CCC(N)=O)C(=O)N[C@@H](CC(C)C)C(=O)N[C@@H](C)C(=O)N[C@H](C(=O)N[C@@H](CCCNC(=N)N)C(=O)N[C@@H](CCCNC(=N)N)C(=O)N[C@@H](Cc1ccc(O)cc1)C(=O)N[C@@H](CC(C)C)C(=O)N[C@@H](C)C(=O)N[C@@H](C)C(=O)N[C@H](C(=O)N[C@@H](CC(C)C)C(N)=O)C(C)C)C(C)C)[C@@H](C)O` [Peptide 21] (Ac-HS[Ala(1H-tetrazol-5-yl)]GIFT[Ala(1H-tetrazol-5-yl)]SYSRYRRQLAVRRYLAAVL-NH2), the “survival rate … 1-week storage” value stood at 97.8% and the “survival rate … 2-week storage” value is listed as 93.5%. As to `CC[C@H](C)[C@H](NC(=O)CNC(=O)[C@H](Cc1nnn[nH]1)NC(=O)[C@H](CO)NC(=O)[C@H](Cc1c[nH]cn1)NC(C)=O)C(=O)N[C@@H](Cc1ccccc1)C(=O)N[C@H](C(=O)N[C@@H](Cc1nnn[nH]1)C(=O)N[C@@H](CO)C(=O)N[C@@H](Cc1ccc(O)cc1)C(=O)N[C@@H](CO)C(=O)N[C@@H](CCCNC(=N)N)C(=O)N[C@@H](Cc1ccc(O)cc1)C(=O)N[C@@H](CCCNC(=N)N)C(=O)N[C@@H](CCCNC(=N)N)C(=O)N[C@@H](CCC(N)=O)C(=O)N[C@@H](CC(C)C)C(=O)N[C@@H](C)C(=O)N[C@H](C(=O)N[C@@H](CCCNC(=N)N)C(=O)N[C@@H](CCCNC(=N)N)C(=O)N[C@@H](Cc1ccc(O)cc1)C(=O)N[C@@H](CC(C)C)C(=O)N[C@@H](C)C(=O)N[C@@H](C)C(=O)N[C@H](C(=O)N[C@@H](CC(C)C)C(=O)NCC(=O)N[C@@H](CCCNC(=N)N)C(=O)N[C@@H](CCCNC(=N)N)C(N)=O)C(C)C)C(C)C)[C@@H](C)O` [Peptide 22] (Ac-HS[Ala(1H-tetrazol-5-yl)]GIFT[Ala(1H-tetrazol-5-yl)]SYSRYRRQLAVRRYLAAVLGRR-NH2), the “survival rate … 1-week storage” value is given as 98.2%. As to `CC[C@H](C)[C@H](NC(=O)[C@H](C)NC(=O)[C@H](Cc1nnn[nH]1)NC(=O)[C@H](CO)NC(=O)[C@H](Cc1c[nH]cn1)NC(C)=O)C(=O)N[C@@H](Cc1ccccc1)C(=O)N[C@H](C(=O)N[C@@H](Cc1nnn[nH]1)C(=O)N[C@@H](CO)C(=O)N[C@@H](Cc1ccc(O)cc1)C(=O)N[C@@H](CO)C(=O)N[C@@H](CCCNC(=N)N)C(=O)N[C@@H](Cc1ccc(O)cc1)C(=O)N[C@@H](CCCNC(=N)N)C(=O)N[C@@H](CCCCN)C(=O)N[C@@H](CCC(N)=O)C(=O)N[C@@H](CC(C)C)C(=O)N[C@@H](C)C(=O)N[C@H](C(=O)N[C@@H](CCCCN)C(=O)N[C@@H](CCCCN)C(=O)N[C@@H](Cc1ccc(O)cc1)C(=O)N[C@@H](CC(C)C)C(=O)N[C@@H](C)C(=O)N[C@@H](C)C(=O)N[C@H](C(=O)N[C@@H](CC(C)C)C(N)=O)C(C)C)C(C)C)[C@@H](C)O` [Peptide 23] (Ac-HS[Ala(1H-tetrazol-5-yl)]AIFT[Ala(1H-tetrazol-5-yl)]SYSRYRKQLAVKKYLAAVL-NH2), the “survival rate … 1-week storage” value worked out at 96.5% and the “survival rate … 2-week storage” value came to 93.1%. On the same counts, the results for `CC[C@H](C)[C@H](NC(=O)CNC(=O)[C@H](Cc1nnn[nH]1)NC(=O)[C@H](C)NC(=O)[C@H](Cc1c[nH]cn1)NC(C)=O)C(=O)N[C@@H](Cc1ccccc1)C(=O)N[C@H](C(=O)N[C@@H](Cc1nnn[nH]1)C(=O)N[C@@H](C)C(=O)N[C@@H](Cc1ccc(O)cc1)C(=O)N[C@@H](CO)C(=O)N[C@@H](CCCNC(=N)N)C(=O)N[C@@H](Cc1ccc(O)cc1)C(=O)N[C@@H](CCCNC(=N)N)C(=O)N[C@@H](CCCCN)C(=O)N[C@@H](CCC(N)=O)C(=O)N[C@@H](CC(C)C)C(=O)N[C@@H](C)C(=O)N[C@H](C(=O)N[C@@H](CCCCN)C(=O)N[C@@H](CCCCN)C(=O)N[C@@H](Cc1ccc(O)cc1)C(=O)N[C@@H](CC(C)C)C(=O)N[C@@H](C)C(=O)N[C@@H](C)C(=O)N[C@H](C(=O)N[C@@H](CC(C)C)C(N)=O)C(C)C)C(C)C)[C@@H](C)O` [Peptide 24] (Ac-HA[Ala(1H-tetrazol-5-yl)]GIFT[Ala(1H-tetrazol-5-yl)]AYSRYRKQLAVKKYLAAVL-NH2) are 98.1% and 94.3%. The like results for `CC[C@H](C)[C@H](NC(=O)CNC(=O)[C@H](Cc1nnn[nH]1)NC(=O)[C@H](C)NC(=O)[C@H](Cc1c[nH]cn1)NC(C)=O)C(=O)N[C@@H](Cc1ccccc1)C(=O)N[C@H](C(=O)N[C@@H](Cc1nnn[nH]1)C(=O)N[C@@H](CO)C(=O)N[C@@H](Cc1ccc(O)cc1)C(=O)N[C@@H](CO)C(=O)N[C@@H](CCCNC(=N)N)C(=O)N[C@@H](Cc1ccc(O)cc1)C(=O)N[C@@H](CCCNC(=N)N)C(=O)N[C@@H](CCCCN)C(=O)N[C@@H](CCC(N)=O)C(=O)N[C@@H](C)C(=O)N[C@@H](C)C(=O)N[C@H](C(=O)N[C@@H](CCCCN)C(=O)N[C@@H](CCCCN)C(=O)N[C@@H](Cc1ccc(O)cc1)C(=O)N[C@@H](CC(C)C)C(=O)N[C@@H](C)C(=O)N[C@@H](C)C(=O)N[C@H](C(=O)N[C@@H](CC(C)C)C(N)=O)C(C)C)C(C)C)[C@@H](C)O` [Peptide 25] (Ac-HA[Ala(1H-tetrazol-5-yl)]GIFT[Ala(1H-tetrazol-5-yl)]SYSRYRKQAAVKKYLAAVL-NH2) were, in that order, 95.8% and 91.2%. The like results for `CC[C@H](C)[C@H](NC(=O)CNC(=O)[C@H](Cc1nnn[nH]1)NC(=O)[C@H](CO)NC(=O)[C@H](Cc1c[nH]cn1)NC(C)=O)C(=O)N[C@@H](Cc1ccccc1)C(=O)N[C@H](C(=O)N[C@@H](Cc1nnn[nH]1)C(=O)N[C@@H](C)C(=O)N[C@@H](Cc1ccc(O)cc1)C(=O)N[C@@H](CO)C(=O)N[C@@H](CCCNC(=N)N)C(=O)N[C@@H](Cc1ccc(O)cc1)C(=O)N[C@@H](CCCNC(=N)N)C(=O)N[C@@H](CCCCN)C(=O)N[C@@H](CCC(N)=O)C(=O)N[C@@H](C)C(=O)N[C@@H](C)C(=O)N[C@H](C(=O)N[C@@H](CCCCN)C(=O)N[C@@H](CCCCN)C(=O)N[C@@H](Cc1ccc(O)cc1)C(=O)N[C@@H](CC(C)C)C(=O)N[C@@H](C)C(=O)N[C@@H](C)C(=O)N[C@H](C(=O)N[C@@H](CC(C)C)C(N)=O)C(C)C)C(C)C)[C@@H](C)O` [Peptide 27] (Ac-HS[Ala(1H-tetrazol-5-yl)]GIFT[Ala(1H-tetrazol-5-yl)]AYSRYRKQAAVKKYLAAVL-NH2) were, in that order, 96.4% and 93.5%.

(Values after patent publication US12304932B2, “PACAP stabilized peptide” (SENJU PHARMACEUTICAL CO., LTD., priority 2017, dated 2025).)
